Assay results taken from ChEMBL document CHEMBL1129816, “Synthesis of 4-trifluoromethylsteroids: A novel class of steroid 5-reductase inhibitors” (Bioorg Med Chem Lett, 1997).
pKi: −log10 of the molar value.

Tests used:
[1] = In vitro inhibitory activity against Steroid 5-alpha-reductase by using enzymic kinetics method
[2] = In vitro inhibitory activity against Steroid 5-alpha-reductase by using isotope method

| pKi [1] | pKi [2] | SMILES |
| --- | --- | --- |
| 7.69 | 7.68 | CC(C)(C)NC(=O)[C@H]1CCC2C3CCC4=C(C(F)(F)F)C(=O)CC[C@]4(C)C3CC[C@@]21C (stereo partly drawn) |
| < 6.00 | < 6.00 | CC(=O)[C@H]1CCC2C3CCC4=C(C(F)(F)F)C(=O)CC[C@]4(C)C3CC[C@@]21C (stereo partly drawn) |
| 7.26 | 7.05 | CC(C)(C)NC(=O)[C@H]1CC[C@H]2[C@@H]3CC[C@H]4NC(=O)C=C[C@]4(C)[C@H]3CC[C@]12C [FINASTERIDE] |

| SMILES | pKi [1] | pKi [2] |
| --- | --- | --- |
| C[C@]12CCC(=O)C(C(F)(F)F)=C1CCC1C2CC[C@]2(C)C(=O)CCC12 (stereo partly drawn) | 7.54 | 7.02 |
